Measurements as given in US20240239801A1, “PYRIMIDO[5,4,D]PYRIMIDINE COMPOUNDS, COMPOSITIONS COMPRISING THEM AND USES THEREOF” (Université de Montréal, priority 2021, published 2024).

Tests used:
[1] = biological target: CRAF (Homo sapiens, UniProt P04049); test: CRAF kinase activity assay (ADP-Glo); format: biochemical; details: Table 3
Description: (§1) Compound preparation: solid samples of each substances in 1dram vials were suspended in DMSO (Fisher Scientific) at a stock concentration of 20 mM. Stocks were kept at −20° C. and protected from light. If solubility of the compound at 20 mM appeared to be an issue, the initial concentration of the DMSO stock was changed to 10 mM or 5 mM.
(§2) In vitro enzymatic reactions were used for evaluating compounds intrinsic activity against BRAF, CRAF and ARAF. For BRAF and CRAF, 0.375 nM of purified GST-tagged kinases (cat #B4062-10UG and cat #R1656-10UG respectively from Millipore Sigma) were incubated with 75 nM of kinase-dead MEK1 substrate (cat #40075; BPS Bioscience) in the presence of 10 μM of Ultrapure ATP (cat #V9102; Promega; part V915A) with and without the test compound in a buffer containing 50 mM HEPES pH 7.5, 10 mM MgCl2, 1 mM EDTA, 0.01% Brij-35 and 2 mM DTT. Separate reactions were performed with the MEK1 substrate and ATP as a blank control. ARAF, kinase reactions were rigorously the same with the exception that kinase concentration was raised to 3.75 nM (cat #1768-0000-1; Reaction Biology).
(§3) For compound treatment, 5 μL/well of test substance solution are placed in a 384-well proxyplate (Perkin Elmer) and mixed with 2× concentrated kinase reactions. The dilution series is selected so that nine concentrations cover a range from 100 nM to 0.01 nM. […] The final concentration of DMSO in the assay is set at 0.05%.
(§4) BRAF and CRAF kinase reactions were carried out for a total of 2 hours at 30° C. and then stopped by ½ dilution in ADP-Glo Reagent (cat #V9102; Promega; part V912C). Reactions were then incubated for 1 h at room temperature before addition of one volume of Kinase Detection Reagent (cat #V9102; Promega; part V917A). Plates were then equilibrated at room temperature for 30 minutes before detection of luminescence on a Synergy Neo2 plate reader (Biotek). The effect of each compound dilution on BRAF and CRAF kinase activity was expressed as % inhibition and calculated as follows. First, the internal 100% inhibition control (average of luminescence in kinase reactions comprising kinase dead MEK1 substrate alone) was subtracted from each data point. The average of DMSO (vehicle) controls (set as 0% inhibition) was established and used to calculate % inhibition:
(§5) IC50 values were obtained by plotting the kinase inhibition values and fitting the dose-activity curves using a log(agonist) versus response−variable slope (four parameters) function using either GraphPadPrism (V7.0) or Dotmatics Screening Ultra platform. Standards included in the ARAF kinase assay were Belvarafenib (MedChem Express cat #HY-109080; CAS #1446113-23-0), LXH254 (MedChem Express cat #HY-112089; CAS #1800398-38-2) and BGB283 (cat #HY-18957; CAS #1446090-79-4).

[2] = biological target: T1, BRAF (Homo sapiens, UniProt P15056); test: BRAF kinase activity assay (ADP-Glo); format: biochemical; details: Table 3
T1 construct: GST; purchased Millipore Sigma B4062-10UG
T1 sequence (P15056 whole entry): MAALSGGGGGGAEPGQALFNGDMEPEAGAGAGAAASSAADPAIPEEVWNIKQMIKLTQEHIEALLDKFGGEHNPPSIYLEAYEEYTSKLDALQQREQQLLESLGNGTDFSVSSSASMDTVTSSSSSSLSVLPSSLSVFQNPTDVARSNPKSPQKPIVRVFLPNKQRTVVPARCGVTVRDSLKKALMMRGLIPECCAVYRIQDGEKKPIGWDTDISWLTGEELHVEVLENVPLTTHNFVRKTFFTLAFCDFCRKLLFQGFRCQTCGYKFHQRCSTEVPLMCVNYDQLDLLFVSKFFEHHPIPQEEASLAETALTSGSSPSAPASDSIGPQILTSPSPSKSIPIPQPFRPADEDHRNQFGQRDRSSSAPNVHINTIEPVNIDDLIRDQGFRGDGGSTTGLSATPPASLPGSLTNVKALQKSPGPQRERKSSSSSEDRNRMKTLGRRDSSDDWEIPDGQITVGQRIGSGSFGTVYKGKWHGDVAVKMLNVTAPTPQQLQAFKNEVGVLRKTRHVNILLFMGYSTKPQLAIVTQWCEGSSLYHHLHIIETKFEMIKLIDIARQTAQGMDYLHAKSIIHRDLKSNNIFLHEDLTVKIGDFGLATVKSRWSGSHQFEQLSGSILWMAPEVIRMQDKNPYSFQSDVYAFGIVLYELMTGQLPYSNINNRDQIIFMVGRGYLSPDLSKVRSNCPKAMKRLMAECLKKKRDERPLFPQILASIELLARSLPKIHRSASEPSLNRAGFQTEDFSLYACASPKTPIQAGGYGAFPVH
Description: as §1, §2, §3, §4, §5

[3] = test system: HCT116 pERK; test: Phospho-ERK inhibition, AlphaLISA SureFire Ultra p-ERK 1/2; format: cell-based, human; details: Table 3; for IC50: 1 h treatment; for HCT116 (Ymin %): lowest value of the pERK IC50 curve
Outline: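 Cells plated in RPMI-1640 with 5% FBS, held overnight, then exposed 1 h to ten-point compound dilutions (top 30 or 10 μM down to 0.33 nM; 0.5% DMSO). Lysates read for p-ERK1/2 (Thr202/Tyr204) by AlphaLISA; % inhibition relative to DMSO after subtracting a 1 μM trametinib background; IC50 from four-parameter fit.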

Sequence of CRAF (P04049 whole entry): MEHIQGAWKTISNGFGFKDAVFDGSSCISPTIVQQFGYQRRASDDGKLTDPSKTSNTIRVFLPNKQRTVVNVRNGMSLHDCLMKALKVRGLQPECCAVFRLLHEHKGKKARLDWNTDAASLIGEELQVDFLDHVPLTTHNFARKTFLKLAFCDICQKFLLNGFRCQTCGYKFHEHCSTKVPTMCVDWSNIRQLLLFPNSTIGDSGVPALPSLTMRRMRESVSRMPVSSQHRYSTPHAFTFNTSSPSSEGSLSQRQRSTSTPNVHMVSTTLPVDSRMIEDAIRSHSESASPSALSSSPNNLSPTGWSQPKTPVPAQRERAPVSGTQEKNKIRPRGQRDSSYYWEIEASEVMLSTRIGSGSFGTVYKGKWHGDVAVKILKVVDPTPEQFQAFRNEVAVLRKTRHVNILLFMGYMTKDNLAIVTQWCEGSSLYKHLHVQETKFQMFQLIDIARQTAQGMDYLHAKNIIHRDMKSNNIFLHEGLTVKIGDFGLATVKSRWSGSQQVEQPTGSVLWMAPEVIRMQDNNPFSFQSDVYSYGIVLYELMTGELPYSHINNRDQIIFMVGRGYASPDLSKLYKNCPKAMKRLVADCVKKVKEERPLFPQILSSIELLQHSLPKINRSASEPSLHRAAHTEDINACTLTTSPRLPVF

Compound	IC50 [1]	IC50 [2]	IC50 ([3]; Homo sapiens, HCT-116)	IC50 [3]	HCT116 (Ymin %) [3]
Cc1c(F)cccc1S(=O)(=O)Nc1ccc(F)c(Nc2ncnc3cnc(-n4nc(C(=O)N(C)C)c5ccccc54)nc23)c1F [Example 105]	> 50 nM	1 to 10 nM		< 500 nM	−8.7%
Cc1c(F)cccc1S(=O)(=O)Nc1ccc(F)c(Nc2ncnc3cnc(-n4nc(C(=O)N(C)CCO)c5ccccc54)nc23)c1F [Example 107]	10 to 50 nM	< 1 nM		500 to 1000 nM	−5.2%
O=S(=O)(Cc1ccncc1)c1cn(-c2ncc3ncnc(Nc4c(F)ccc(NS(=O)(=O)c5cccc(Cl)c5Cl)c4F)c3n2)c2ccccc12 [Example 143]	10 to 50 nM	1 to 10 nM		< 500 nM	−7%
Cc1c(F)cccc1S(=O)(=O)Nc1ccc(F)c(Nc2ncnc3cnc(-n4cc(C(=O)N(C)CCO)c5ccccc54)nc23)c1F [Example 101]	< 10 nM	< 1 nM		< 500 nM	3.5%
Cc1c(F)cccc1S(=O)(=O)Nc1ccc(F)c(Nc2ncnc3cnc(-n4nc(C(=O)N5CCN(C)CC5)c5ccccc54)nc23)c1F [Example 104]	> 50 nM	< 1 nM	< 500 nM		
Cc1c(F)cccc1S(=O)(=O)Nc1ccc(F)c(Nc2ncnc3cnc(-n4cc(C(=O)N(C)C)c5ccccc54)nc23)c1F [Example 97]	10 to 50 nM	< 1 nM		< 500 nM	−6.3%
COc1ccc(S(=O)(=O)Nc2ccc(F)c(Nc3ncnc4cnc(-n5cnc6ccccc65)nc34)c2F)c(C)c1Cl [Example 115]	10 to 50 nM	1 to 10 nM		< 500 nM	2%
Cc1c(F)cccc1S(=O)(=O)Nc1ccc(F)c(Nc2ncnc3cnc(-n4nnc5ccccc54)nc23)c1F [Example 121]	< 10 nM	1 to 10 nM		1000 to 10000 nM	−4%
COCCOc1cccc2c1nnn2-c1ncc2ncnc(Nc3c(F)ccc(NS(=O)(=O)c4cccc(Cl)c4Cl)c3F)c2n1 [Example 137]	< 10 nM	1 to 10 nM	< 500 nM		
COc1ccc(S(=O)(=O)Nc2ccc(F)c(Nc3ncnc4cnc(-n5cnc6c(N)cccc65)nc34)c2F)c(C)c1F [Example 111]	< 10 nM	1 to 10 nM		< 500 nM	−8.1%
CCC1(O)CCN(c2cccc3c2ncn3-c2ncc3ncnc(Nc4c(F)ccc(NS(=O)(=O)c5cccc(Cl)c5Cl)c4F)c3n2)CC1 [Example 133]	< 10 nM	1 to 10 nM		< 500 nM	−6%
O=S(=O)(Nc1ccc(F)c(Nc2ncnc3cnc(-n4cnc5c(N6CCN(CCO)CC6)cccc54)nc23)c1F)c1cccc(Cl)c1Cl [Example 146]	< 10 nM	< 1 nM		< 500 nM	−9%
O=S(=O)(Nc1ccc(F)c(Nc2ncnc3cnc(-n4nnc5c(N6CCC7(CCCO7)CC6)cccc54)nc23)c1F)c1cccc(Cl)c1Cl [Example 138]	10 to 50 nM	> 10 nM		< 500 nM	1%
CN(CCO)c1cccc2c1ncn2-c1ncc2ncnc(Nc3c(F)ccc(NS(=O)(=O)c4cccc(Cl)c4Cl)c3F)c2n1 [Example 134]	< 10 nM	1 to 10 nM		< 500 nM	8%

Continued, in another order:

IC50 [1]	IC50 [2]	IC50 ([3]; Homo sapiens, HCT-116)	IC50 [3]	Compound	HCT116 (Ymin %) [3]
< 10 nM	< 1 nM	< 500 nM		Cc1c(F)cccc1S(=O)(=O)Nc1ccc(F)c(Nc2ncnc3cnc(-n4cc(S(=O)(=O)N5CCN(C)CC5)c5ccccc54)nc23)c1F [Example 96]	
10 to 50 nM	< 1 nM		< 500 nM	Cc1c(F)cccc1S(=O)(=O)Nc1ccc(F)c(Nc2ncnc3cnc(-n4nc(C(=O)N(C)Cc5ccncc5)c5ccccc54)nc23)c1F [Example 106]	−2.3%
> 50 nM	1 to 10 nM		500 to 1000 nM	Cc1c(S(=O)(=O)Nc2ccc(F)c(Nc3ncnc4cnc(-n5cnc6ccccc65)nc34)c2F)ccc(F)c1F [Example 154]	3%
< 10 nM	1 to 10 nM		1000 to 10000 nM	Cc1c(Cl)cccc1S(=O)(=O)Nc1ccc(F)c(Nc2ncnc3cnc(-n4nnc5ccccc54)nc23)c1F [Example 124]	−9%
< 10 nM	1 to 10 nM		500 to 1000 nM	O=S(=O)(Nc1ccc(F)c(Nc2ncnc3cnc(-n4cnc5ccccc54)nc23)c1F)c1cccc(Cl)c1C(F)(F)F [Example 156]	
< 10 nM	< 1 nM		< 500 nM	CN(C)C1CCN(c2cccc3c2ncn3-c2ncc3ncnc(Nc4c(F)ccc(NS(=O)(=O)c5cccc(Cl)c5Cl)c4F)c3n2)CC1 [Example 145]	−8%
10 to 50 nM	> 10 nM		1000 to 10000 nM	COc1ccc(S(=O)(=O)Nc2ccc(F)c(Nc3ncnc4cnc(-n5nnc6ccccc65)nc34)c2F)c(C)c1F [Example 118]	−14%
10 to 50 nM	< 1 nM			Cc1c(F)cccc1S(=O)(=O)Nc1ccc(F)c(Nc2ncnc3cnc(-n4cc(C(=O)N5CCN(C)CC5)c5ccccc54)nc23)c1F [Example 99]	(−3.6) %
10 to 50 nM	< 1 nM		< 500 nM	Cc1c(F)cccc1S(=O)(=O)Nc1ccc(F)c(Nc2ncnc3cnc(-n4nc(C(=O)N5CCOCC5)c5ccccc54)nc23)c1F [Example 110]	−3.7%
< 10 nM	1 to 10 nM	500 to 1000 nM		N#CC1(c2cccc3c2nnn3-c2ncc3ncnc(Nc4c(F)ccc(NS(=O)(=O)c5cccc(Cl)c5Cl)c4F)c3n2)CC1 [Example 135]	
10 to 50 nM	1 to 10 nM		< 500 nM	CCC1(O)CCN(c2cccc3c2ncn3-c2ncc3ncnc(Nc4c(F)ccc(NS(=O)(=O)c5cccc(C)c5Cl)c4F)c3n2)CC1 [Example 153]	−6%
< 10 nM	1 to 10 nM		< 500 nM	CCC1(O)CCN(c2cccc3c2nnn3-c2ncc3ncnc(Nc4c(F)ccc(NS(=O)(=O)c5cccc(Cl)c5Cl)c4F)c3n2)CC1 [Example 136]	19%
> 50 nM	1 to 10 nM		1000 to 10000 nM	Cc1cccc(S(=O)(=O)Nc2ccc(F)c(Nc3ncnc4cnc(-n5cnc6ccccc65)nc34)c2F)c1Cl [Example 152]	−15%
10 to 50 nM	< 1 nM		< 500 nM	Cc1c(F)cccc1S(=O)(=O)Nc1ccc(F)c(Nc2ncnc3cnc(-n4nc(C(=O)N5CCC[C@H](O)C5)c5ccccc54)nc23)c1F [Example 109]	−6.5%
< 10 nM	< 1 nM		< 500 nM	O=S(=O)(Nc1ccc(F)c(Nc2ncnc3cnc(-n4cnc5ccccc54)nc23)c1F)c1scc(Cl)c1Cl [Example 157]	0%
10 to 50 nM	1 to 10 nM		1000 to 10000 nM	O=S(=O)(Nc1ccc(F)c(Nc2ncnc3cnc(-n4cnc5ccccc54)nc23)c1F)c1cccc2c1OC(F)(F)O2 [Example 150]	−8%
10 to 50 nM	1 to 10 nM		< 500 nM	O=S(=O)(CC1CCOCC1)c1cn(-c2ncc3ncnc(Nc4c(F)ccc(NS(=O)(=O)c5cccc(Cl)c5Cl)c4F)c3n2)c2ccccc12 [Example 144]	−9%
< 10 nM	< 1 nM		< 500 nM	O=S(=O)(Nc1ccc(F)c(Nc2ncnc3cnc(-n4cc(S(=O)(=O)C5CCOCC5)c5ccccc54)nc23)c1F)c1cccc(Cl)c1Cl [Example 142]	−15%
